Results reported in US20090048339A1, “COMPOSITIONS OF CIS-9, TRANS-11 CONJUGATED LINOLEIC ACID AND VACCENIC ACID AND USES THEREOF” (FONTERRA CORPORATE RESEARCH AND DEVELOPMENT LIMITE, priority 2005, published 2009).

Columns and labels:
[1] = mice, two week feeding period; cited from earlier work
[2] = humans; cited from earlier work
IL-5 = IL-5 in BAL fluid by ELISA after allergen challenge; type: in vivo, C57BL/6 mice; settings: vs AIN-93G control
Excerpt: The levels of IL-5 and eotaxin in the BAL fluid were quantitated by ELISA using a Quantikine mouse IL-5 ELISA kit and a mouse eotaxin Quantikine ELISA kit (R&D Systems, MN), respectively, according to the manufacturers' instructions. The detection limits were 3 pg/ml for eotaxin and 7 pg/ml for IL-5.
IL-5 and eotaxin produced by a variety of different cell types in the sensitized lung play key roles in asthma by controlling the development and release of eosinophils from the bone marrow, and their accumulation, activation and survival in the lung (Walsh et al., 2005; Shinagawa et al., 2003). Challenge with allergen led to marked increases in the levels of IL-5 and eotaxin (data not shown) in the BAL fluid of control mice fed the AIN93G diet (FIG. 3).

[3] = Blood triglyceride levels (Accutrend GCT meter); settings: diet with 0.21% VA; P<0.05; data not shown
OVA-induced asthma = OVA-induced asthma mouse model: lung histopathology score and mucus index (alcian blue-PAS sections); type: in vivo, C57BL/6 mice; settings: summary statement; for effect on lung pathology: fed individually
Experimental: (§1) Eight to nine week old male and female C57BL/6 mice (University of Auckland, New Zealand) were kept on an ovalbumin (OVA)-free normal mouse chow diet from weaning up until they were assigned to a particular diet (control or experimental diet). Each diet group (n=6) contained an equal number of male and female mice. Throughout the study period mice were kept in an air-conditioned room with controlled humidity, temperature, and a 12h light:dark cycle.
(§2) Healthy control mice were maintained on an unmodified AIN-93G diet. Soybean oil (which contains no CLA) was the dietary fat source in the AIN-93G diet. The final fat content of all treatment diets used in the Examples was maintained at the same level as the fat content of the control AIN-93G diet by reducing the soybean oil content of the treatment or control diets as required. Fresh diet was provided biweekly, and mice had free access to food and water throughout the study.

[4] = tested on: allergen-induced accumulation of leukocytes into the lung; test: OVA-induced asthma mouse model: bronchoalveolar lavage (BAL) total and differential cell counts; type: in vivo, C57BL/6 mice; settings: for increase of total BAL cell counts vs control diet: single-supplement diets (0.14% cis-9, trans-11 CLA or 0.21% VA), BAL 6 days after intranasal OVA challenge, vs AIN93G control; for increase of accumulation of eosinophils in BAL vs control diet: single-supplement diets, BAL 6 days after OVA challenge, not significant; for effect on leukocyte infiltration into the airway lumen: summary statement
Experimental: as §1, §2
Bronchoalveolar lavage was performed immediately after euthanasia by flushing 1 ml of PBS containing 1% heat inactivated fetal calf serum (lavage buffer) thrice through the lung and airways of mice via the cannulated trachea. The recovered BAL was pooled for each animal, centrifuged at 1,500 rpm at 4° C., and the supernatant stored at −80° C. The cell pellets were resuspended in 1 ml of lavage buffer, and total cell numbers were counted using a hemocytometer. BAL cells were centrifuged onto poly-L-lysine-coated glass slides using a cytospin, and stained with Diff-Quik stain (Dade Behring Inc. USA). Differential cellular counts were made by counting ≧300 cells under light microscopy (Nikon E200 microscope), using standard morphological criteria.
Data are expressed as the mean±SEM, and statistical significance was determined by the Student's t test. A value of P<0.05 was taken as significant.

Row | increase of blood triglyceride levels [3] [%] | Structure (SMILES) | VA consumed retained as cis-9, trans-11 CLA in its triglyceride form [1] [%] | average conversion rate of VA to cis-9, trans-11 CLA [2] [%] | reduction of IL-5 in BAL fluid vs control diet (IL-5) [%] | effect on lung pathology (OVA-induced asthma) | increase of total BAL cell counts vs control diet [4] [%] | increase of accumulation of eosinophils in BAL vs control diet [4] [%] | effect on leukocyte infiltration into the airway lumen [4] | inhibition of mucus hypersecretion (significance) (OVA-induced asthma) | increase in monocytes/macrophages in BAL vs control diet ([4]; 0.14% cis-9, trans-11 CLA diet, P=0.05) [%]
1 | 59 | CCCCCC/C=C/CCCCCCCCCC(=O)O [VA, trans 11-octadecenoic acid] | ~12 | ~19 | 11 | no significant effect | 94 | 270 | increased |  | 
2 |  | CCCCCC/C=C/C=C\CCCCCCCC(=O)O [cis-9, trans-11 CLA, cis-9, trans-11 conjugated linoleic acid] |  |  | 21 | no significant effect | 43 | 69 | increased | significance was not achieved | 35
